According to PubChem BioAssay AID1963848 (Molecular Pharmacology Branch, DTP, NCI, 2024):

System: 379773-124-R-J2-PDC spheroid viability
Assay: Anticancer human tumor 379773-124-R-J2-PDC patient-derived endometrial carcinoma cell line growth inhibition [POLQ]
Conditions: spheroids with HUVEC and MSC; for IC50: curve of first compound; for viability, T/C: stronger effect = lower value
Method in brief: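 Complex spheroid viability model combining PDC tumour cells with endothelial (HUVEC) and MSC stromal cells. Novobiocin, ART-558 or RP6685 were tested singly and in combination with standard and investigational anticancer drugs. Each was titrated in half-log steps from near clinical Cmax, or from 10 microM where Cmax was unknown.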

[1] = second compound 0.0316 µM, first compound 0.0316 µM
[2] = second compound 0.0316 µM, first compound 0.1 µM
[3] = second compound 0.0316 µM, first compound 0.316 µM
[4] = second compound 0.0316 µM, first compound 1 µM
[5] = second compound 0.0316 µM, first compound 3.16 µM
[6] = second compound 0.0316 µM, first compound 10 µM
[7] = second compound 0.1 µM, first compound 0.0316 µM
[8] = second compound 0.1 µM, first compound 0.1 µM
[9] = second compound 0.1 µM, first compound 0.316 µM
[10] = second compound 0.1 µM, first compound 1 µM
[11] = second compound 0.1 µM, first compound 3.16 µM
[12] = second compound 0.1 µM, first compound 10 µM
[13] = second compound 0.316 µM, first compound 0.0316 µM
[14] = second compound 0.316 µM, first compound 0.1 µM
[15] = second compound 0.316 µM, first compound 0.316 µM
[16] = second compound 0.316 µM, first compound 1 µM
[17] = second compound 0.316 µM, first compound 3.16 µM
[18] = second compound 0.316 µM, first compound 10 µM
[19] = second compound 1 µM, first compound 0.0316 µM
[20] = second compound 1 µM, first compound 0.1 µM
[21] = second compound 1 µM, first compound 0.316 µM
[22] = second compound 1 µM, first compound 1 µM
[23] = second compound 1 µM, first compound 3.16 µM
[24] = second compound 1 µM, first compound 10 µM
[25] = second compound 3.16 µM, first compound 0.0316 µM
[26] = second compound 3.16 µM, first compound 0.1 µM
[27] = second compound 3.16 µM, first compound 0.316 µM
[28] = second compound 3.16 µM, first compound 1 µM
[29] = second compound 3.16 µM, first compound 3.16 µM
[30] = second compound 3.16 µM, first compound 10 µM
[31] = second compound 10 µM, first compound 0.0316 µM
[32] = second compound 10 µM, first compound 0.1 µM
[33] = second compound 10 µM, first compound 0.316 µM
[34] = second compound 10 µM, first compound 1 µM
[35] = second compound 10 µM, first compound 3.16 µM
[36] = second compound 10 µM, first compound 10 µM
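Also: spheroids exposed to drugs for seven days before readout.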
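For viability, T/C in this document: percent viability relative to DMSO vehicle control taken as 100%.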

SMILES: CCCS(=O)(=O)Nc1ccc(F)c(C(=O)c2c[nH]c3ncc(-c4ccc(Cl)cc4)cc23)c1F + COC1C(OC(N)=O)C(O)C(Oc2ccc3c(O)c(NC(=O)c4ccc(O)c(CC=C(C)C)c4)c(=O)oc3c2C)OC1(C)C
- IC50 (second compound 0.0316 µM): > 10 µM
- IC50 (second compound 0.1 µM): > 10 µM
- IC50 (second compound 0.316 µM): > 10 µM
- IC50 (second compound 1 µM): > 10 µM
- IC50 (second compound 3.16 µM): > 10 µM
- IC50 (second compound 10 µM): > 10 µM
- viability, T/C [1]: 94.2%
- viability, T/C [2]: 86.8%
- viability, T/C [3]: 83.8%
- viability, T/C [4]: 87.9%
- viability, T/C [5]: 70.5%
- viability, T/C [6]: 57.9%
- viability, T/C [7]: 86.2%
- viability, T/C [8]: 87.7%
- viability, T/C [9]: 88.3%
- viability, T/C [10]: 80.3%
- viability, T/C [11]: 73.1%
- viability, T/C [12]: 55.4%
- viability, T/C [13]: 77.1%
- viability, T/C [14]: 75.6%
- viability, T/C [15]: 76.8%
- viability, T/C [16]: 77.6%
- viability, T/C [17]: 66.2%
- viability, T/C [18]: 52.9%
- viability, T/C [19]: 87.6%
- viability, T/C [20]: 84.4%
- viability, T/C [21]: 81.8%
- viability, T/C [22]: 77.8%
- viability, T/C [23]: 73.6%
- viability, T/C [24]: 58.9%
- viability, T/C [25]: 73.5%
- viability, T/C [26]: 76.2%
- viability, T/C [27]: 75.8%
- viability, T/C [28]: 76.4%
- viability, T/C [29]: 75.7%
- viability, T/C [30]: 61.3%
- viability, T/C [31]: 78.5%
- viability, T/C [32]: 85.4%
- viability, T/C [33]: 79.8%
- viability, T/C [34]: 66.5%
- viability, T/C [35]: 75.9%
- viability, T/C [36]: 60.2%

SMILES: COc1cccc(OCCCN)c1-c1cc(Nc2cnc(C#N)cn2)n[nH]1 + Nc1ccc(C#CCN(C(=O)Cc2ncc(C(F)(F)F)cc2C(F)(F)F)c2ccc(F)cc2)nn1
- IC50 (second compound 0.0316 µM): 0.00621 µM
- IC50 (second compound 0.1 µM): 0.00612 µM
- IC50 (second compound 0.316 µM): 0.00636 µM
- IC50 (second compound 1 µM): 0.00647 µM
- IC50 (second compound 3.16 µM): 0.0064 µM
- IC50 (second compound 10 µM): 0.00636 µM
- viability, T/C (second compound 0.0316 µM, first compound 0.00316 µM): 86.5%
- viability, T/C (second compound 0.0316 µM, first compound 0.01 µM): 24.3%
- viability, T/C [1]: 3.65%
- viability, T/C [2]: 2.95%
- viability, T/C [3]: 2.97%
- viability, T/C [4]: 1.66%
- viability, T/C (second compound 0.1 µM, first compound 0.00316 µM): 80.2%
- viability, T/C (second compound 0.1 µM, first compound 0.01 µM): 27.6%
- viability, T/C [7]: 3.76%
- viability, T/C [8]: 2.65%
- viability, T/C [9]: 2.25%
- viability, T/C [10]: 1.2%
- viability, T/C (second compound 0.316 µM, first compound 0.00316 µM): 95.2%
- viability, T/C (second compound 0.316 µM, first compound 0.01 µM): 20.7%
- viability, T/C [13]: 3.16%
- viability, T/C [14]: 2.72%
- viability, T/C [15]: 3.55%
- viability, T/C [16]: 1.23%
- viability, T/C (second compound 1 µM, first compound 0.00316 µM): 98.5%
- viability, T/C (second compound 1 µM, first compound 0.01 µM): 20.5%
- viability, T/C [19]: 3.32%
- viability, T/C [20]: 2.87%
- viability, T/C [21]: 4.02%
- viability, T/C [22]: 1.67%
- viability, T/C (second compound 3.16 µM, first compound 0.00316 µM): 102%
- viability, T/C (second compound 3.16 µM, first compound 0.01 µM): 16.9%
- viability, T/C [25]: 3.53%
- viability, T/C [26]: 1.93%
- viability, T/C [27]: 2.04%
- viability, T/C [28]: 1.29%
- viability, T/C (second compound 10 µM, first compound 0.00316 µM): 93.2%
- viability, T/C (second compound 10 µM, first compound 0.01 µM): 22%
- viability, T/C [31]: 2.53%
- viability, T/C [32]: 2.36%
- viability, T/C [33]: 2.24%
- viability, T/C [34]: 1.49%

SMILES: CC1COCCN1c1cc(-c2ccnn2C)c2ccnc(-c3ccn[nH]3)c2n1 (stereo unspecified) + COC1C(OC(N)=O)C(O)C(Oc2ccc3c(O)c(NC(=O)c4ccc(O)c(CC=C(C)C)c4)c(=O)oc3c2C)OC1(C)C
- IC50 (second compound 0.0316 µM): 0.0768 µM
- IC50 (second compound 0.1 µM): 0.0811 µM
- IC50 (second compound 0.316 µM): 0.104 µM
- IC50 (second compound 1 µM): 0.0739 µM
- IC50 (second compound 3.16 µM): 0.111 µM
- IC50 (second compound 10 µM): 0.0827 µM
- viability, T/C [1]: 75.7%
- viability, T/C [2]: 42.4%
- viability, T/C [3]: 10.5%
- viability, T/C [4]: 9.05%
- viability, T/C [5]: 8.71%
- viability, T/C [6]: 5.49%
- viability, T/C [7]: 85.5%
- viability, T/C [8]: 42.1%
- viability, T/C [9]: 9.78%
- viability, T/C [10]: 8.09%
- viability, T/C [11]: 9.06%
- viability, T/C [12]: 6.55%
- viability, T/C [13]: 82.7%
- viability, T/C [14]: 51.4%
- viability, T/C [15]: 11.2%
- viability, T/C [16]: 7.55%
- viability, T/C [17]: 8.92%
- viability, T/C [18]: 7.56%
- viability, T/C [19]: 83.3%
- viability, T/C [20]: 38.1%
- viability, T/C [21]: 9.64%
- viability, T/C [22]: 8.17%
- viability, T/C [23]: 9.6%
- viability, T/C [24]: 5.36%
- viability, T/C [25]: 64.1%
- viability, T/C [26]: 54%
- viability, T/C [27]: 11.1%
- viability, T/C [28]: 7.3%
- viability, T/C [29]: 8.49%
- viability, T/C [30]: 6.71%
- viability, T/C [31]: 86.9%
- viability, T/C [32]: 42.7%
- viability, T/C [33]: 10.4%
- viability, T/C [34]: 7.51%
- viability, T/C [35]: 9.13%
- viability, T/C [36]: 5.64%
